Assay results published in EP1935986B1, “Luminogenic and fluorogenic compounds and methods to detect molecules or conditions” (priority 2005, dated 2006).

How the values were obtained:
[1] = target: T1, QuantiLum Luciferase (Photinus pyralis, UniProt P08659); experiment: pH titration of firefly luciferase reaction with 7'-fluoroluciferin; type: biochemical
T1 construct: purchased Promega Corporation E170

[2] = target: T1, QuantiLum Luciferase; experiment: ATP titration of firefly luciferase reactions with luciferin and fluoroluciferins; type: biochemical; settings: result in words
Method: All compounds except 5'-fluoroluciferin and DTT were purchased from Sigma Chemical. To some of this reagent 5 mM ATP (Amersham/Invitrogen) was added, then serially diluted by half-logs to 0.05 mM. Reactions were initiated by adding equal volumes (0.1 ml) of reagent and DMEM medium (Gibco/Invitrogen) containing 0.1% Prionex® (Pentapharm) and 1.4 x 10-5 mg/ml QuantiLum™ Luciferase (Promega Corporation).
For ATP titrations for 7'-fluoroluciferin, reagent was created containing 200 mM HEPES, 200 mM PIPES, 1 mM CDTA, 0.5% Tergitol NP-9, 0.03% Benzyl dodecyldimethyl ammonium bromide, 30 mM thiourea, 10 mM magnesium sulfate, and 0.15 mM 7'-fluoroluciferin. This solution was separated into 3 parts and pH of the reagents were 7.4, 7.2 and 6.7. To some of this reagent, 10 mM ATP (Amersham/Invitrogen) was added. The ATP was serially diluted by quarter-logs from 10 mM to 0.32 mM.
Reactions were initiated by adding equal volumes (0.03 ml) of reagent and DMEM medium (Gibco/Invitrogen) containing 0.1% Prionex® (Pentapharm) and 1.4 x 10-5 mg/ml QuantiLum™ Luciferase (Promega Corporation).
Luminescence was measured for 0.5 seconds per well using Berthold Orion luminometer.

[3] = target: T1, QuantiLum Luciferase; experiment: Emission spectra of luciferase reactions with luciferin, 5'-fluoroluciferin, 7'-fluoroluciferin; type: biochemical, firefly; settings: reagent pH 7.4
Method: All compounds except fluoroluciferin and ATP were purchased from Sigma Chemical. ATP was purchased from Amersham/Invitrogen.
Spectra were measured using 0.5s integration with 1 nm increments on a Spex Fluorolog.

[4] = target: T1, QuantiLum Luciferase; experiment: Scaffolds: light emission of luciferin derivatives with QuantiLum luciferase alone, + Co A, + DTT, + Co A and DTT; type: biochemical, firefly
[5] = tested on: equine GST; experiment: Two-step bioluminogenic GST assay with luciferin derivative; type: biochemical; settings: versus GST M1-1 and GST A1-1; result in words
Method: The derivative was tested in a two step format. […] At different times after the reaction was initiated, a portion was removed and mixed with a luciferase reaction mixture. Reactions in which light production increased over time indicate that GST#3 is a substrate for the GST in that reaction.
Equine GST Solution: 25 mg of equine GST (Part G 6511, Sigma Chemical Company, St. Louis, MO) was dissolved in 5 ml of 10 mM BisTris buffer, pH 6.6. […] […] Glutathione (reduced) (Part G 4251, Sigma Chemical Company) was dissolved in water to create a 100 mM solution. GST #3 was dissolved in acetonitrile to produce a 12 mM solution.

[6] = Non-enzymatic transformation of luciferin derivative by glutathione (no GST), luciferase read-out; type: biochemical; settings: time of mixing/20/40 minutes
Method: Buffer stock solutions (1 M) of BisTris at pH 6.5, HEPES, pH 7.0, 7.5 and 8.0 and Tricine pH 8.5 were prepared by dissolving solid reagent obtained from Sigma Chemical Corporation and adjusting the pH to the desired value.
The stock of S. japonica GST used in Example 1A was diluted to 1 mg/ml with 10 mM BisTris pH 6.5.
The reactions were initiated by addition of GST #3 and mixing. […]

[7] = target: T2, GST M1-1 (Homo sapiens, UniProt P09488, K173N); experiment: Bioluminogenic GST assay with acetyl luciferin; type: biochemical; settings: versus GST A1-1; result in words
T2 construct: purchased Sigma
T2 sequence (P09488 whole entry K173N): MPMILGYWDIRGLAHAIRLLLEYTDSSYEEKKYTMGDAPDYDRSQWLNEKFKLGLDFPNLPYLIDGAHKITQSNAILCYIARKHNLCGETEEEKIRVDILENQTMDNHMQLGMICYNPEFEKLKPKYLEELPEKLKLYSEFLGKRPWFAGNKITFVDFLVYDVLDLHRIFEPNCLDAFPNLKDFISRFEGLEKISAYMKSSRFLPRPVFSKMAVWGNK

[8] = target: CYP3A5 (Homo sapiens, UniProt P20815); experiment: Two-step luminescent P450 screen of luciferin derivatives; settings: result in words
Sequence of CYP3A5 (P20815 whole entry): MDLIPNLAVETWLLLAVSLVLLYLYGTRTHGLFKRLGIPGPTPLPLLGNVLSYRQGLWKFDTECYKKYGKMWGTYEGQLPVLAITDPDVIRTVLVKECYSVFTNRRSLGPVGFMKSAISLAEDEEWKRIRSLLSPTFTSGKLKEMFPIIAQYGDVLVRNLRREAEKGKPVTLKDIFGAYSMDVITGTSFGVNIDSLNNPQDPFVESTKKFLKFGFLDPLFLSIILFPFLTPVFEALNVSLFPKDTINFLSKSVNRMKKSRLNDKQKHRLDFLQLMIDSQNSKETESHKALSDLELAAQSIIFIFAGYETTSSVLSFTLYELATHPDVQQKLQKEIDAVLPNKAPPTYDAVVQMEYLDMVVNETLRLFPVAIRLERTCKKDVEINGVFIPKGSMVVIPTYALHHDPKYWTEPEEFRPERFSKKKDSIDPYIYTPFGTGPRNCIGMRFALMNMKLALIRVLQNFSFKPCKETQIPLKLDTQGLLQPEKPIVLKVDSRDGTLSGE

T1 sequence (P08659 whole entry): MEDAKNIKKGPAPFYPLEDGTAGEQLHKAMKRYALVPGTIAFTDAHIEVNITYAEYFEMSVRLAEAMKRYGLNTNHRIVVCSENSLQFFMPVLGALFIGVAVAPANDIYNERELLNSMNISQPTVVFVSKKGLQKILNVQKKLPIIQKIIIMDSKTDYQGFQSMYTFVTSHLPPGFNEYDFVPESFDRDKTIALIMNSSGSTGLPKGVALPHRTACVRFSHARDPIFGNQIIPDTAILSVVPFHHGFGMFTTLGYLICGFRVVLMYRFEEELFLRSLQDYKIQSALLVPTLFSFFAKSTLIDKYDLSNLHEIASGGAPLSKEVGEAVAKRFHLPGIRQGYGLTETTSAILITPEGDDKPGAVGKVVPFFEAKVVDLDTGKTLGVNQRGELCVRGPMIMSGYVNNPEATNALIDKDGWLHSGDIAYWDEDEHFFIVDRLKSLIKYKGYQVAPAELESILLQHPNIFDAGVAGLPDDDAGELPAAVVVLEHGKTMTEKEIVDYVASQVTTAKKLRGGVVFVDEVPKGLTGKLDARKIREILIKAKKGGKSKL

With `O=C(O)[C@H]1CSC(c2nc3ccc(O)c(F)c3s2)=N1` [7'-fluoroluciferin] the “pH optima for the firefly luciferase reaction” value [1] was about 7.5 pH, the “ATP requirement of the luciferase reaction compared with luciferin” value [2] was “requirement for ATP is much higher” and the “λmax of luminescence, red-shifted from regular luciferin” value [3] was “approximately 21 nm”.

`O=C(O)[C@H]1CSC(c2ccc3cc(Oc4ccc(C(F)(F)F)cc4[N+](=O)[O-])ccc3n2)=N1` [GST #3, 6-(2-nitro-4-trifluoromethyl-phenoxy)quinolinyl-luciferin] gave a light emission values ([4]; Derivative Conc. 1.07, Alone) of 3232, a light emission values ([4]; Derivative Conc. 1.07, Co A) of 3081 and a light emission values ([4]; Derivative Conc. 1.07, Co A + DTT) of 6964. The light emission values ([4]; Derivative Conc. 1.07, DTT) was 5953, the light emission values ([4]; Derivative Conc. 3.13, Alone) was 4913 and the light emission values ([4]; Derivative Conc. 3.13, Co A) was 4832. It also gave a light emission values ([4]; Derivative Conc. 3.13, Co A + DTT) of 8826, a light emission values ([4]; Derivative Conc. 3.13, DTT) of 9106 and a light emission values ([4]; Derivative Conc. 6.25, Alone) of 7682. The light emission values ([4]; Derivative Conc. 6.25, Co A) was 7149, the light emission values ([4]; Derivative Conc. 6.25, Co A + DTT) was 10423 and the light emission values ([4]; Derivative Conc. 6.25, DTT) was 11164. The light emission values ([4]; Derivative Conc. 12.5, Alone) was 11752, the light emission values ([4]; Derivative Conc. 12.5, Co A) was 10674 and the light emission values ([4]; Derivative Conc. 12.5, Co A + DTT) was 14298. For the same compound, the light emission values ([4]; Derivative Conc. 12.5, DTT) was 16587, the light emission values ([4]; Derivative Conc. 25, Alone) was 15957 and the light emission values ([4]; Derivative Conc. 25, Co A) was 14791. For the same compound, the light emission values ([4]; Derivative Conc. 25, Co A + DTT) was 18145, the light emission values ([4]; Derivative Conc. 25, DTT) was 21256 and the light emission values ([4]; Derivative Conc. 50, Alone) was 17409. For the same compound, the light emission values ([4]; Derivative Conc. 50, Co A) was 15440, the light emission values ([4]; Derivative Conc. 50, Co A + DTT) was 20009 and the light emission values ([4]; Derivative Conc. 50, DTT) was 22888. For the same compound, the light emission values ([4]; Derivative Conc. 100, Alone) was 16388, the light emission values ([4]; Derivative Conc. 100, Co A) was 18343 and the light emission values ([4]; Derivative Conc. 100, Co A + DTT) was 19129. The light emission values ([4]; Derivative Conc. 100, DTT) was 21472, the “substrate preference among GSTs in a light generating reaction” value [5] was “better substrate for equine GST” and the “Light Output” value ([6]; Table 4 reaction 2: BisTris pH 6.5, 5 µl 100 mM glutathione, no GST, 20 minutes post mixing) was 1.287. The “Light Output” value ([6]; Table 4 reaction 2: BisTris pH 6.5, 5 µl 100 mM glutathione, no GST, 40 minutes post mixing) was 1.761, the “Light Output” value ([6]; Table 4 reaction 2: BisTris pH 6.5, 5 µl 100 mM glutathione, no GST, at time of mixing) was 1.13 and the “Light Output” value ([6]; Table 4 reaction 4: HEPES pH 7.0, glutathione, 20 minutes post mixing) was 1.178. For the same compound, the “Light Output” value ([6]; Table 4 reaction 4: HEPES pH 7.0, glutathione, 40 minutes post mixing) was 2.2 and the “Light Output” value ([6]; Table 4 reaction 4: HEPES pH 7.0, glutathione, at time of mixing) was 1.156.

With `COC(=O)[C@H]1CSC(c2ccc3cc(Oc4ccc(C(F)(F)F)cc4[N+](=O)[O-])ccc3n2)=N1` [GST-4, Methyl 6-(2-nitro-4-trifluoromethyl-phenoxy)quinolinyl-luciferin ester] the “substrate preference among GSTs in a light generating reaction” value [7] was “better substrate for GST M1-1”.

For `O=C(O)[C@H]1CSC(c2nc3ccc(OCc4ccc(C(F)(F)F)cc4)cc3s2)=N1` [Luciferin-6-trifluoromethylbenzylether], the “P450 activity / selectivity with the derivative as substrate” value [8] was “enhanced selectivity”.
